{"source": "patent USRE38386E1", "about": "“Retardation of metalloproteinase incidental to HIV and/or AIDS” (priority 1997, dated 2004)", "origin": "cited, not measured here", "key": {"HIV-infected monocytes": {"test_system": "HIV-infected monocytes", "conditions": "interferon-gamma at 50 U/ml"}, "[1]": {"test_system": "92-kd metalloproteinase (MMP-9)"}, "HIV": {"test_system": "HIV", "conditions": "added to monocytes on day 10 after infection"}, "[2]": {"test_system": "endothelial cell monolayers", "conditions": "incubation of HIV-infected monocytes with the proteinase inhibitor"}}}
{"substance": "interferon-gamma: interferon-gamma, used to treat HIV-infected monocytes", "values": [{"measurement": "ability of infected monocytes to form an invasive network on matrigel and their invasion through the matrigel matrix", "setting": "HIV-infected monocytes", "value": "inhibited"}, {"measurement": "inhibition of MMP-9 production", "setting": "[1]; added to monocytes on day 10 after infection", "value": "more than threefold"}, {"measurement": "levels of MMP-9", "setting": "[1]; treated 1 day after HIV infection, vs monocytes inoculated with live HIV, heat-inactivated HIV or uninfected control", "value": "substantially lower"}, {"measurement": "levels of MMP-9 produced by HIV-infected monocytes", "setting": "[1]; treated 1 day prior to infection with HIV, vs untreated HIV-infected monocytes", "value": "significant reduction"}, {"measurement": "reduction of virus replication", "setting": "HIV", "value": "no significant reduction"}]}
{"substance": "TIMP-1: proteinase inhibitor, tissue inhibitor of metalloproteinase", "values": [{"measurement": "increased permeability of endothelial cell monolayers to 125I albumin", "setting": "[2]", "value": "inhibited"}]}
